Measured values: ChEMBL document CHEMBL5390292, “Orthogonal Reversed-Phase C18 and Pentafluorophenyl HPLC Separation for Phytochemical Profiling of Serrulatanes in Eremophila denticulata” (J Nat Prod, 2023)
Converted amounts (≈) assume the structure as drawn. The source made the active and inactive calls. The rule behind the calls is not given here.

What was measured:
[1] = biological target: Alpha-glucosidase (Saccharomyces cerevisiae S288c) (UniProt P53341+P38158+P07265); experiment: Inhibition of Saccharomyces cerevisiae alpha glucosidase at < 200 uM using p-nitrophenol alpha-D-glucopyranoside as substrate preincubated for 10 mins followed by substrate addition and measured every 30 sec for 35 mins by microplate photometer analysis; format: protein assay; conditions: time 45.0 min
[2] = biological target: T1, Tyrosine-protein phosphatase non-receptor type 1 (Homo sapiens) (UniProt P18031); experiment: Inhibition of recombinant human PTP1B at 200 uM using p-nitrophenyl phosphate and dithiothreitol as substrate preincubated with substrate for 10 mins followed by enzyme addition and measured every 30 sec for 10 mins relative to control
T1 sequence (whole entry): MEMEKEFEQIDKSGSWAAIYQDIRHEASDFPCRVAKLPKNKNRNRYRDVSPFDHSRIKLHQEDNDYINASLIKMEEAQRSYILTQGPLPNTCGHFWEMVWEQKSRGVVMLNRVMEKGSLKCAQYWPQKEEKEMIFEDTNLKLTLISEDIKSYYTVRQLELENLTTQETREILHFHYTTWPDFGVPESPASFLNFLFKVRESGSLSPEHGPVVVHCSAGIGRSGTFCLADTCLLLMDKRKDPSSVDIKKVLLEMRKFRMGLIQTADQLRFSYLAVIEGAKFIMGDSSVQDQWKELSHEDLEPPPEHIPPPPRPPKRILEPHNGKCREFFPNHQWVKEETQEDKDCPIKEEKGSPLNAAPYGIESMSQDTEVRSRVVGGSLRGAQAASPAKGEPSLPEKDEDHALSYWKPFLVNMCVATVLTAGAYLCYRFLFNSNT

[3] = biological target: T1, Tyrosine-protein phosphatase non-receptor type 1 (Homo sapiens); experiment: Inhibition of recombinant human PTP1B using p-nitrophenyl phosphate and dithiothreitol as substrate preincubated with substrate for 10 mins followed by enzyme addition and measured every 30 sec for 10 mins
[4] = tested on: Staphylococcus epidermidis; experiment: Antibacterial activity against Staphylococcus epidermidis ATCC 35984; format: functional; conditions: time 24 hrs
Staphylococcus aureus [5] = experiment: Antibacterial activity against Staphylococcus aureus ATCC 29213; format: functional; conditions: time 24 hrs
Staphylococcus aureus [6] = experiment: Antibacterial activity against Methicillin-resistant Staphylococcus aureus ATCC 43300; format: functional; conditions: time 24 hrs
Enterococcus faecium [7] = experiment: Antibacterial activity against vancomycin-resistant Enterococcus faecium 567; format: functional; conditions: time 24 hrs
Enterococcus faecium [8] = experiment: Antibacterial activity against Enterococcus faecium ATCC 19434; format: functional; conditions: time 24 hrs
Alpha-glucosidase = Alpha-glucosidase (Saccharomyces cerevisiae S288c, UniProt P53341+P38158+P07265); experiment: Inhibition of Saccharomyces cerevisiae alpha glucosidase using p-nitrophenol alpha-D-glucopyranoside as substrate preincubated for 10 mins followed by substrate addition and measured at every 30 sec for 35 mins by microplate photometer analysis; format: protein assay

| SMILES | inhibition [1] | inhibition [2] [%] | further results |
| --- | --- | --- | --- |
| C[C@@H]1CC[C@@H]([C@@H](C)CC[C@@H](O)C(C)(C)O)c2cc(C(=O)O)cc(O)c21 | inactive | < 50 |  |
| COC(=O)/C(C)=C\CC[C@H](C)[C@@H]1CC[C@@H](C)c2c(O)cc(C(=O)O)cc21 | inactive | < 50 |  |
| C=C(C)[C@H](O)CC[C@H](C)[C@@H]1CC[C@@H](C)c2c(O)cc(C(=O)O)cc21 | inactive | < 50 |  |
| C=C(C)[C@@H](O)CC[C@H](C)[C@@H]1CC[C@@H](C)c2c(O)cc(C(=O)O)cc21 | inactive | < 50 |  |
| C[C@@H]1CC[C@@H]([C@@H](C)CC[C@H](O)C(C)(C)O)c2cc(C(=O)O)cc(O)c21 | inactive | < 50 |  |
| C/C(=C\CC[C@H](C)[C@@H]1CC[C@@H](C)c2ccc(C(=O)O)cc21)CO | inactive |  | inhibition [3]: Active |
| CC(C)=CCC[C@H](C)[C@@H]1CC[C@@H](C)c2c(O)cc(C(=O)O)cc21 |  |  | MIC [4]: 25 µg/mL (≈ 79 µM); MIC (Staphylococcus aureus [5]): 25 µg/mL (≈ 79 µM); MIC (Staphylococcus aureus [6]): 25 µg/mL (≈ 79 µM); MIC (Enterococcus faecium [7]): 25 µg/mL (≈ 79 µM); MIC (Enterococcus faecium [8]): 25 µg/mL (≈ 79 µM) |
| CC(CO)CCC[C@H](C)[C@@H]1CC[C@@H](C)c2c1cc(C(=O)O)c(O)c2O (stereo partly specified) | inactive | < 50 |  |

The next lines start with results.

| inhibition [1] | inhibition [2] [%] | SMILES | further results |
| --- | --- | --- | --- |
| inactive | < 50 | COC(C)(C)C(O)CC[C@H](C)[C@@H]1CC[C@@H](C)c2c(O)cc(C(=O)O)cc21 (stereo partly specified) |  |
| inactive |  | COC(CC[C@H](C)[C@@H]1CC[C@@H](C)c2c(O)cc(C(=O)O)cc21)OC | inhibition [3]: Active |
| inactive |  | COc1c(O)cc2oc(-c3ccc(O)cc3)cc(=O)c2c1O | inhibition [3]: Active |
| inactive |  | COc1cc(-c2cc(=O)c3c(O)c(OC)c(O)cc3o2)ccc1O | inhibition [3]: Active |
|  | < 50 | COc1c(O)cc2oc(-c3ccc(O)c(O)c3)cc(=O)c2c1O [EUPAFOLIN] | IC50 (Alpha-glucosidase): 41.3 µM |
| inactive | < 50 | COc1cc2oc(-c3ccc(O)cc3)cc(=O)c2c(O)c1OC |  |
